Measurements taken from patent US8703951B2, “Synthesis of 4H-benzo[D]pyrrolo[1,2-A]thiazoles and indolizino[6,7-b]indole derivatives and their use as antitumor therapeutic agents” (Academia Sinica, priority 2011, dated 2014).
Like-named read-outs stand apart in the source and are kept apart here.

Tests used:
glioma U87 = assay: In vitro cytotoxicity, Alamar blue assay, U87; format: cell-based, human
Procedure: (§1) Prostate cancer PC3, non-small cell lung carcinoma cells H1299, and human glioma cells U87 were purchased from the American Type Culture Collection (Rockville, Md.). OECM-1 (human gingival squamous cell carcinoma cells) was obtained from Dr C.-L. Meng (National Defense Medical College, Taiwan).^22
(§2) In preparation for in vitro cytotoxicity assays, cells were cultured at an initial density 2−5×10^4 cells per milliliter. They were maintained in a 5% CO2-humidified atmosphere at 37° C. in RPMI medium 1640 (GIBCO/BRL) containing penicillin (100 units/mL), streptomycin (100 μg/mL, GIBCO/BRL), and 5% heat-inactivated FBS. For cells grown in suspension (such as CCRF-CEM and its sublines), cytotoxicity was measured, by using XTT microculture method^23 in 96-well microtiter plates.
(§3) The cytotoxic effects of the newly synthesized compounds were determined in T-cell acute lymphocytic leukemia (CCRF-CEM) and their resistant subcell lines (CCRF-CEM/Taxol and CCRF-CEM/VBL) by the XTT assay^24 and human solid tumor cells (i.e. breast carcinoma MX-1 and colon carcinoma HCT-116) by the SRB assay^25 in a 72 h incubation using a microplate spectrophotometer as described previously.^25 After the addition of phenazine methosulfate-XTT solution, incubated at 37° C. for 6 h and absorbance at 450 and 630 nm was detected on a microplate reader (EL 340). The cytotoxicity of the newly synthesized compounds against non-small cell lung carcinoma H1299, prostate cancer PC3, oral cancer OECM-1 and glioma U87 were determined by the Alamar blue assay^26 in a 72 h incubation using a microplate spectrophotometer as described previously. After the addition of alamar blue solution, it was incubated at 37° C. for 6 h. Absorbance at 570 and 600 nm was detected on a microplate reader. IC50 values were determined from dose-effect relationship at six or seven concentrations of each drug using the CompuSyn software by Chou and Martin^27 based on the median-effect principle and plot.^28,29 Ranges given for Cisplatin were mean±SE (n=4).

prostate cancer PC3 = assay: In vitro cytotoxicity, Alamar blue assay, PC3; format: cell-based, human
Procedure: as §1, §2, §3

CCRF-CEM/Taxol = assay: In vitro cytotoxicity, XTT assay, CCRF-CEM/Taxol; format: cell-based, human; details: Table 5; for IC50: Taxol-resistant subline, XTT, 72 h, read-out: Cell Growth inhibition (IC50 μM) CCRF-CEM/Taxol; for fold of cross-resistant vs IC50 of the parent cell line, CCRF-CEM/Taxol: number in brackets
Description: (§4) Human colon carcinoma HCT-116 cells and human prostate adenocarcinoma PC-3 cells were obtained from American Type Culture Collection (ATCC, Rockville, Md.). Human mammary carcinoma (MX-1) tumor cells were obtained from MSKCC cell bank. The CCRF-CEM human lymphoblastic leukemia cells and their vinblastine resistant subline (CCRF-CEM/VBL, 680-fold resistance in vitro) were obtained from Dr. William Beck of the University of Illinois, Chicago, and CCRF-CEM/Taxol (330-fold resistance in vitro). Resistant cells CCRF-CEM/taxol were produced by exposing the parent cells to increasing sublethal concentration (IC50-IC90) of paclitaxel for six months.
as §2, §3

[1] = tested on: human lymphoblastic leukemia (CCRF-CEM); assay: In vitro cytotoxicity, XTT assay, CCRF-CEM; format: cell-based; details: Table 5, 72 h incubation, read-out: Cell Growth inhibition (IC50 μM) CCRF-CEM
Description: as §4, §2, §3

[2] = tested on: non-small cell lung carcinoma H1299; assay: In vitro cytotoxicity, Alamar blue assay, H1299; format: cell-based, human
Procedure: as §1, §2, §3

CCRF-CEM/VBL = assay: In vitro cytotoxicity, XTT assay, CCRF-CEM/VBL; format: cell-based, human; details: Table 5; for IC50: vinblastine-resistant subline, XTT, 72 h, read-out: Cell Growth inhibition (IC50 μM) CCRF-CEM/VBL; for fold of cross-resistant vs IC50 of the parent cell line, CCRF-CEM/VBL: number in brackets
Description: as §4, §2, §3

oral cancer OECM-1 = assay: In vitro cytotoxicity, Alamar blue assay, OECM-1; format: cell-based, human
Procedure: as §1, §2, §3

| SMILES | melting point [°C] | fold of cross-resistant vs IC50 of the parent cell line, CCRF-CEM/Taxol (CCRF-CEM/Taxol) [×] | fold of cross-resistant vs IC50 of the parent cell line, CCRF-CEM/VBL (CCRF-CEM/VBL) [×] | IC50 (glioma U87; Table 6, 72 h) [µM] | IC50 (prostate cancer PC3; Table 6, 72 h) [µM] | IC50 ([2]; Table 6, 72 h) [µM] | IC50 (oral cancer OECM-1; Table 6, 72 h) [µM] | also measured |
| --- | --- | --- | --- | --- | --- | --- | --- | --- |
| OCc1c(CO)c2sc3ccccc3n2c1C1CC1 [Compound 18j, (1-Cyclopropylbenzo[d]pyrrolo[2,1-b]thiazole-2,3-diyl)dimethanol] |  | 2.37 | 2.51 |  |  |  |  | IC50 (glioma U87; Homo sapiens, Table 6, 72 h): 28.7 ± 4.32 µM; IC50 (prostate cancer PC3; Homo sapiens, Table 6, 72 h): 10.7 ± 2.29 µM; IC50 (CCRF-CEM/Taxol; Homo sapiens, CCRF-CEM): 2.31 ± 0.0048 µM; IC50 ([1]; Homo sapiens, CCRF-CEM): 0.97 ± 0.07 µM; IC50 ([2]; Homo sapiens, NCI-H1299, Table 6, 72 h): 13.3 ± 2.23 µM; IC50 (CCRF-CEM/VBL; Homo sapiens, CCRF-CEM): 2.44 ± 0.01 µM; IC50 (oral cancer OECM-1; Homo sapiens, OECM1, Table 6, 72 h): 7.12 ± 0.95 µM |
| CC(C)NC(=O)OCc1c(COC(=O)NC(C)C)c2sc3ccccc3n2c1C1CC1 [Compound 20j, (1-Cyclopropylbenzo[d]pyrrolo[2,1-b]thiazole-2,3-diyl)bis(methylene)bis(iso-propyl-carbamate)] |  | 7.30 | 9.00 | 45.5 ± 6.19 | 13.4 ± 0.84 | 20.4 ± 1.65 | 9.67 ± 1.06 | IC50 (CCRF-CEM/Taxol): 0.73 ± 0.013 µM; IC50 [1]: 0.1 ± 0.01 µM; IC50 (CCRF-CEM/VBL): 0.9 ± 0.011 µM |
| CCNC(=O)OCc1c(COC(=O)NCC)c2sc3ccccc3n2c1C1CC1 [Compound 19j, (1-Cyclopropylbenzo[d]pyrrolo[2,1-b]thiazole-2,3-diyl)bis(methylene)bis(ethylcarbamate)] |  | 4.01 | 3.18 | 74.5 ± 8.7 | 24.2 ± 2.96 | 20.6 ± 1.89 | 26.3 ± 4.44 | IC50 (CCRF-CEM/Taxol): 0.68 ± 0.004 µM; IC50 [1]: 0.17 ± 0.03 µM; IC50 (CCRF-CEM/VBL): 0.54 ± 0.008 µM |
| OCc1c(CO)c2sc3ccccc3n2c1-c1ccc(F)c(Cl)c1 [Compound 18f, (1-(3-Chloro-4-fluorophenyl)benzo[d]pyrrolo[2,1-b]thiazole-2,3-diyl)dimethanol] | 178 to 179 |  |  |  |  |  |  |  |
| COc1cc(-c2c(CO)c(CO)c3sc4ccccc4n23)cc(OC)c1OC [Compound 18i, (1-(3,4,5-Trimethoxyphenyl)benzo[d]pyrrolo[2,1-b]thiazole-2,3-diyl)dimethanol] | 160 to 161 |  |  |  |  |  |  |  |
| N.N.[Cl][Pt][Cl] [Cisplatin, reference compound] |  |  |  | 54.6 ± 3.33 | 4.71 ± 0.66 | 16.5 ± 0.9 | 2.44 ± 0.53 | IC50 (glioma U87; Table 7, 72 h): 54.6 ± 3.33 µM; IC50 (prostate cancer PC3; Table 7, 72 h): 4.71 ± 0.66 µM; IC50 ([2]; Table 7, 72 h): 16.5 ± 0.9 µM; IC50 (oral cancer OECM-1; Table 7, 72 h, read-out: IC50 (μM) OECM1): 2.44 ± 0.53 µM |

Now from value to molecule, other results behind:

| melting point [°C] | SMILES | fold of cross-resistant vs IC50 of the parent cell line, CCRF-CEM/Taxol (CCRF-CEM/Taxol) [×] | fold of cross-resistant vs IC50 of the parent cell line, CCRF-CEM/VBL (CCRF-CEM/VBL) [×] | IC50 (glioma U87; Table 6, 72 h) [µM] | IC50 (prostate cancer PC3; Table 6, 72 h) [µM] | IC50 ([2]; Table 6, 72 h) [µM] | IC50 (oral cancer OECM-1; Table 6, 72 h) [µM] | also measured |
| --- | --- | --- | --- | --- | --- | --- | --- | --- |
| 195 to 196 | Cn1c2c(c3ccccc31)Cc1c(CO)c(CO)c(-c3ccc(F)c(F)c3)n1C2 [Compound 26e, (3-(3,4-Difluorophenyl)-6-methyl-6,11-dihydro-5H-indolizino[6,7-b]indole-1,2-diyl)dimethanol] |  |  |  |  |  |  |  |
| 240 to 241 | Cn1c2c(c3ccccc31)Cc1c(CO)c(CO)c(-c3ccc(F)cc3)n1C2 [Compound 26c, (3-(4-Fluorophenyl)-6-methyl-6,11-dihydro-5H-indolizino[6,7-b]indole-1,2-diyl)dimethanol] |  |  |  |  |  |  |  |
